According to patent US20120022047A1, “PROCESS FOR THE PURIFICATION OF ESLICARBAZEPINE ACETATE” (GLENMARK GENERICS LTD, priority 2009, published 2012):

Experiments:
[1] = Specific surface area by Brunauer-Emmett-Teller (B.E.T.) nitrogen absorption; format: physicochemical; settings: crystal particles, measured by B.E.T.
Description: Specific surface area is defined in units of square meters per gram (m2/g). It is usually measured by nitrogen absorption analysis. In this analysis, nitrogen is absorbed on the surface of the substance. The amount of the absorbed nitrogen (as measured during the absorption or the subsequent desorption process) is related to the surface area via a formula known as the Brunauer Emmet Teller (B.E.T.) formula.

[2] = Particle size distribution by laser diffraction (Malvern Mastersizer); format: physicochemical; settings: crystal particles obtained by the processes herein described
Description: As used herein, the phrase, “particle size distribution (PSD)” means the cumulative volume size distribution of equivalent spherical diameters as determined by laser diffraction at 1 bar dispersive pressure in a Sympatec Helos equipment. d10, as used herein is defined as the particle size at which the cumulative percentage undersize is 10 (i.e. the bottom 10% of particles are less than or equal to the stated size). d50 means the median particle size and d90 is defined as the particle size at which the cumulative percentage undersize is 90 (i.e. the bottom 90% of particles are less than or equal to the stated size). The particle size of eslicarbazepine acetate was measured under following conditions. [table] In accordance with the invention, the size distribution of eslicarbazepine acetate particles is determined by laser diffraction. In the present invention, the method in the determination of the size of eslicarbazepine acetate particles employed a Malvern Mastersizer laser diffraction instrument. Samples of the eslicarbazepine acetate were suspended in hexane containing a surfactant, 1% Tween80®. The suspensions were mixed and then sonicated for 120 seconds to thoroughly disperse the eslicarbazepine acetate particles. The dispersion was then circulated in the flow cell of the Malvern Mastersizer for two minutes before particle size measurements were taken.

## CC(=O)O[C@H]1Cc2ccccc2N(C(N)=O)c2ccccc21 [eslicarbazepine acetate, (S)-(−)-10-(acetyloxy)-10,11-dihydro-5H-dibenz[b,f]-azepine-5-carboxamide]
[1]
  Specific surface area: about 1.37 m^2/g
[2]
  Particle size distribution d 10: 5.421 μm
  Particle size distribution d 50 (median particle size): 19.780 μm
  Particle size distribution d 90: 168.686 μm
